Source: patent US20090047221A1 (NIPRI LIMITED, priority 2004, published 2009)

System: cancer cell line MDA-MB-468
Test: Combination index with known cancer drugs against proliferation (Calcusyn software)
Type: cell-based
Conditions: MDA-MB-468
How it was run: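 MTT proliferation assay: cells exposed continuously to drug for 96 h at 37° C, 5% CO2, screening range 1-200 μg/ml, then MTT 4 h, DMSO solubilisation, absorbance 570 nm. Synergy with known drugs given as combination index (Calcusyn).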

## CC1(C)Cc2ccc(C(=O)N[C@@H](Cc3ccccc3)C(=O)O)c(O)c2C(=O)O1 [ALM-74, L-Phenyl Alanine Amide of Compound ALM-73]
Cisplatin 1 × 10^−2 mol/L, ALM-74 0.1 μg/ml
  Combination Index: 0.006
Cisplatin 1 × 10^−2 mol/L, ALM-74 0.5 μg/ml
  Combination Index: 0.008
Cisplatin 1 × 10^−2 mol/L, ALM-74 1.0 μg/ml
  Combination Index: 0.082
Cisplatin 1 × 10^−2 mol/L, ALM-74 5.0 μg/ml
  Combination Index: 0.130
Cisplatin 1 × 10^−3 mol/L, ALM-74 0.1 μg/ml
  Combination Index: No
Cisplatin 1 × 10^−3 mol/L, ALM-74 0.5 μg/ml
  Combination Index: No
Cisplatin 1 × 10^−3 mol/L, ALM-74 1.0 μg/ml
  Combination Index: 0.039
Cisplatin 1 × 10^−3 mol/L, ALM-74 5.0 μg/ml
  Combination Index: 0.346
Cisplatin 1 × 10^−4 mol/L, ALM-74 0.1 μg/ml
  Combination Index: No
Cisplatin 1 × 10^−4 mol/L, ALM-74 0.5 μg/ml
  Combination Index: No
Cisplatin 1 × 10^−4 mol/L, ALM-74 1.0 μg/ml
  Combination Index: 0.061
Cisplatin 1 × 10^−4 mol/L, ALM-74 5.0 μg/ml
  Combination Index: 1.031
Cisplatin 1 × 10^−5 mol/L, ALM-74 0.1 μg/ml
  Combination Index: No
Cisplatin 1 × 10^−5 mol/L, ALM-74 0.5 μg/ml
  Combination Index: No
Cisplatin 1 × 10^−5 mol/L, ALM-74 1.0 μg/ml
  Combination Index: 0.069
Cisplatin 1 × 10^−5 mol/L, ALM-74 5.0 μg/ml
  Combination Index: 0.778
Cisplatin 1 × 10^−6 mol/L, ALM-74 0.1 μg/ml
  Combination Index: No
Cisplatin 1 × 10^−6 mol/L, ALM-74 0.5 μg/ml
  Combination Index: No
Cisplatin 1 × 10^−6 mol/L, ALM-74 1.0 μg/ml
  Combination Index: 0.083
Cisplatin 1 × 10^−6 mol/L, ALM-74 5.0 μg/ml
  Combination Index: No
Cisplatin 1 × 10^−7 mol/L, ALM-74 0.1 μg/ml
  Combination Index: No
Cisplatin 1 × 10^−7 mol/L, ALM-74 0.5 μg/ml
  Combination Index: No
Cisplatin 1 × 10^−7 mol/L, ALM-74 1.0 μg/ml
  Combination Index: 0.092
Cisplatin 1 × 10^−7 mol/L, ALM-74 5.0 μg/ml
  Combination Index: No
Cisplatin 1 × 10^−8 mol/L, ALM-74 0.1 μg/ml
  Combination Index: No
Cisplatin 1 × 10^−8 mol/L, ALM-74 0.5 μg/ml
  Combination Index: No
Cisplatin 1 × 10^−8 mol/L, ALM-74 1.0 μg/ml
  Combination Index: 0.091
Cisplatin 1 × 10^−8 mol/L, ALM-74 5.0 μg/ml
  Combination Index: No
Cisplatin 1 × 10^−9 mol/L, ALM-74 0.1 μg/ml
  Combination Index: 0.895
Cisplatin 1 × 10^−9 mol/L, ALM-74 0.5 μg/ml
  Combination Index: No
Cisplatin 1 × 10^−9 mol/L, ALM-74 1.0 μg/ml
  Combination Index: 0.090
Cisplatin 1 × 10^−9 mol/L, ALM-74 5.0 μg/ml
  Combination Index: No
Doxorubicin 1 × 10^−4 mol/L, ALM-74 0.1 μg/ml
  Combination Index: No
Doxorubicin 1 × 10^−4 mol/L, ALM-74 0.5 μg/ml
  Combination Index: 0.277
Doxorubicin 1 × 10^−4 mol/L, ALM-74 1.0 μg/ml
  Combination Index: No
Doxorubicin 1 × 10^−4 mol/L, ALM-74 5.0 μg/ml
  Combination Index: No
Doxorubicin 1 × 10^−5 mol/L, ALM-74 0.1 μg/ml
  Combination Index: 0.001
Doxorubicin 1 × 10^−5 mol/L, ALM-74 0.5 μg/ml
  Combination Index: 0.007
Doxorubicin 1 × 10^−5 mol/L, ALM-74 1.0 μg/ml
  Combination Index: 0.376
Doxorubicin 1 × 10^−5 mol/L, ALM-74 5.0 μg/ml
  Combination Index: 1.069
Etoposide 1 × 10^−4 mol/L, ALM-74 0.1 μg/ml
  Combination Index: 0.355
Etoposide 1 × 10^−4 mol/L, ALM-74 0.5 μg/ml
  Combination Index: 0.402
Etoposide 1 × 10^−4 mol/L, ALM-74 1.0 μg/ml
  Combination Index: 0.307
Etoposide 1 × 10^−4 mol/L, ALM-74 5.0 μg/ml
  Combination Index: 0.349
Etoposide 1 × 10^−5 mol/L, ALM-74 0.1 μg/ml
  Combination Index: No
Etoposide 1 × 10^−5 mol/L, ALM-74 0.5 μg/ml
  Combination Index: 0.613
Etoposide 1 × 10^−5 mol/L, ALM-74 1.0 μg/ml
  Combination Index: 0.031
Etoposide 1 × 10^−5 mol/L, ALM-74 5.0 μg/ml
  Combination Index: 0.053
Etoposide 1 × 10^−6 mol/L, ALM-74 0.1 μg/ml
  Combination Index: No
Etoposide 1 × 10^−6 mol/L, ALM-74 0.5 μg/ml
  Combination Index: No
Etoposide 1 × 10^−6 mol/L, ALM-74 1.0 μg/ml
  Combination Index: 0.015
Etoposide 1 × 10^−6 mol/L, ALM-74 5.0 μg/ml
  Combination Index: 0.200
Etoposide 1 × 10^−7 mol/L, ALM-74 0.1 μg/ml
  Combination Index: No
Etoposide 1 × 10^−7 mol/L, ALM-74 0.5 μg/ml
  Combination Index: No
Etoposide 1 × 10^−7 mol/L, ALM-74 1.0 μg/ml
  Combination Index: 0.016
Etoposide 1 × 10^−7 mol/L, ALM-74 5.0 μg/ml
  Combination Index: 0.231
Etoposide 1 × 10^−8 mol/L, ALM-74 0.1 μg/ml
  Combination Index: No
Etoposide 1 × 10^−8 mol/L, ALM-74 0.5 μg/ml
  Combination Index: No
Etoposide 1 × 10^−8 mol/L, ALM-74 1.0 μg/ml
  Combination Index: 0.016
Etoposide 1 × 10^−8 mol/L, ALM-74 5.0 μg/ml
  Combination Index: 0.261
Etoposide 1 × 10^−9 mol/L, ALM-74 0.1 μg/ml
  Combination Index: No
Etoposide 1 × 10^−9 mol/L, ALM-74 0.5 μg/ml
  Combination Index: No
Etoposide 1 × 10^−9 mol/L, ALM-74 1.0 μg/ml
  Combination Index: 0.019
Etoposide 1 × 10^−9 mol/L, ALM-74 5.0 μg/ml
  Combination Index: 0.251
Etoposide 1 × 10^−10 mol/L, ALM-74 0.1 μg/ml
  Combination Index: 0.724
Etoposide 1 × 10^−10 mol/L, ALM-74 0.5 μg/ml
  Combination Index: No
Etoposide 1 × 10^−10 mol/L, ALM-74 1.0 μg/ml
  Combination Index: 0.022
Etoposide 1 × 10^−10 mol/L, ALM-74 5.0 μg/ml
  Combination Index: 0.265
Irinotecan 1 × 10^−3 mol/L, ALM-74 0.1 μg/ml
  Combination Index: 0.916
Irinotecan 1 × 10^−3 mol/L, ALM-74 0.5 μg/ml
  Combination Index: 0.121
Irinotecan 1 × 10^−3 mol/L, ALM-74 1.0 μg/ml
  Combination Index: No
Irinotecan 1 × 10^−3 mol/L, ALM-74 5.0 μg/ml
  Combination Index: No
Irinotecan 1 × 10^−4 mol/L, ALM-74 0.1 μg/ml
  Combination Index: 0.189
Irinotecan 1 × 10^−4 mol/L, ALM-74 0.5 μg/ml
  Combination Index: 0.302
Irinotecan 1 × 10^−4 mol/L, ALM-74 1.0 μg/ml
  Combination Index: 0.051
Irinotecan 1 × 10^−4 mol/L, ALM-74 5.0 μg/ml
  Combination Index: 0.051
Irinotecan 1 × 10^−5 mol/L, ALM-74 0.1 μg/ml
  Combination Index: No
Irinotecan 1 × 10^−5 mol/L, ALM-74 0.5 μg/ml
  Combination Index: No
Irinotecan 1 × 10^−5 mol/L, ALM-74 1.0 μg/ml
  Combination Index: 0.025
Irinotecan 1 × 10^−5 mol/L, ALM-74 5.0 μg/ml
  Combination Index: 0.616
Irinotecan 1 × 10^−6 mol/L, ALM-74 0.1 μg/ml
  Combination Index: 0.518
Irinotecan 1 × 10^−6 mol/L, ALM-74 0.5 μg/ml
  Combination Index: No
Irinotecan 1 × 10^−6 mol/L, ALM-74 1.0 μg/ml
  Combination Index: 0.055
Irinotecan 1 × 10^−6 mol/L, ALM-74 5.0 μg/ml
  Combination Index: 0.589
Irinotecan 1 × 10^−7 mol/L, ALM-74 0.1 μg/ml
  Combination Index: 0.067
Irinotecan 1 × 10^−7 mol/L, ALM-74 0.5 μg/ml
  Combination Index: No
Irinotecan 1 × 10^−7 mol/L, ALM-74 1.0 μg/ml
  Combination Index: 0.054
Irinotecan 1 × 10^−7 mol/L, ALM-74 5.0 μg/ml
  Combination Index: 0.726
Irinotecan 1 × 10^−8 mol/L, ALM-74 0.1 μg/ml
  Combination Index: 0.046
Irinotecan 1 × 10^−8 mol/L, ALM-74 0.5 μg/ml
  Combination Index: No
Irinotecan 1 × 10^−8 mol/L, ALM-74 1.0 μg/ml
  Combination Index: 0.066
Irinotecan 1 × 10^−8 mol/L, ALM-74 5.0 μg/ml
  Combination Index: 0.895
Irinotecan 1 × 10^−9 mol/L, ALM-74 0.1 μg/ml
  Combination Index: 0.049
Irinotecan 1 × 10^−9 mol/L, ALM-74 0.5 μg/ml
  Combination Index: No
Irinotecan 1 × 10^−9 mol/L, ALM-74 1.0 μg/ml
  Combination Index: 0.078
Irinotecan 1 × 10^−9 mol/L, ALM-74 5.0 μg/ml
  Combination Index: 0.973
Irinotecan 1 × 10^−10 mol/L, ALM-74 0.1 μg/ml
  Combination Index: 0.22
Irinotecan 1 × 10^−10 mol/L, ALM-74 0.5 μg/ml
  Combination Index: No
Irinotecan 1 × 10^−10 mol/L, ALM-74 1.0 μg/ml
  Combination Index: 0.086
Irinotecan 1 × 10^−10 mol/L, ALM-74 5.0 μg/ml
  Combination Index: 0.720
